The results in this text go back to the pKa sets of Baltruschat and Czodrowski (2020).

For the first series the following is noted: acidic group.
By pKa is commonly meant the negative logarithm of the acid dissociation constant. On to `NC(=O)/C(=N/O)c1ccccc1`, for which the pKa came to 9.55.
In turn, `NC(=O)C(N)CO` (stereo not drawn) had a pKa of 7.3.
The same measure, in the same setting: the value for `O=C(O)C(F)c1ccccc1` (stereo not drawn) was 2.45; that for `N#CC(C#N)=C(O)c1ccc(N)cc1` was 4.28; that for `O=C([O-])CCS` was 10.3.
On the same count and under the same terms, the value for `N#CC(O)=C(C#N)C#N` was 1.9; that for `O=C(O)c1ccc2ccccc2[nH+]1` was 1.79; that for `Oc1ccc2ccnnc2c1` was 7.56.
As for `Oc1ccccc1-c1ccccc1O`, the pKa was found to be 7.5.
Still for that read-out and setting: the figure for `C=CC(=O)O` is 4.25; for `N#CC(C#N)=C(Br)C(C#N)C#N` it is 2.6; for `CC(C(N)=O)S(N)(=O)=O` (stereo not drawn) it is 9.86.
The same measure, in the same setting: the value for `N#CS` was 0.85; that for `Cc1nn(-c2ccccc2)c(O)c1C1CCCCC1` was 11.6.
As for `Oc1cccc2cn[nH]c12`, the pKa worked out at 8.6.
Compound `CCCC1(CCC)SC(=O)NC1=O` came in with a pKa of 6.37.
Still for that read-out and setting: the value for `CCc1c(C)nn(-c2ccccc2)c1O` was 11.5; that for `N#C/C(=N\O)C(N)=O` was 5.12.
Take `C=C/C(C)=C/[C@@H](C)C(=O)C[C@@H](O)CC1CC(=O)NC(=O)C1`: the pKa came to 11.2.
On the same count and under the same terms, the value for `COc1cc(OC)nc([N-]S(=O)(=O)c2ccc(O)cc2)n1` was 9.05.
In turn, `CC(O)C(C(=O)O)c1ccc(C2CCCCC2)cc1` (stereo not drawn) came in with a pKa of 4.21.
Still for that read-out and setting: the figure for `On1nnc2ccccc21` is 4.6.
Same read-out and setting: the value for `Cc1ccc(NC(=S)c2ccc(Cl)cc2)cc1` was 11.2; that for `Cc1ccc(I)c(C(=O)O)c1` was 2.95.
Still for that read-out and setting: the figure for `O=[N+]([O-])c1cccc(/C=C/C=N/O)c1` is 10.2; for `C=CC[NH+](C)CCCNC(=O)/C=N/O` it is 8.48.
Take `Nc1nc(N)c2[nH]cnc2n1`: the pKa stood at 10.8.
On the same count and under the same terms, the figure for `COc1cc(S(C)=O)ccc1-c1nc2ccnnc2[nH]1` (stereo not drawn) is 8.7; for `Nc1c2ccccc2[nH+]c2cccc(O)c12` it is 5.61.
In turn, `O=[N+]([O-])c1cc(O)ccc1[O-]` yielded a pKa of 10.1.
The compound `C[NH+](C)CCCCCCCCCCNC(=O)/C=N/O` had a pKa of 9.02.
Compound `O=C(O)/C=C/C(=O)c1ccccc1` yielded a pKa of 3.34.
On the same count and under the same terms, the figure for `O=C(O)Cc1[nH]c2ccccc2[nH+]1` is 0.2; for `Cc1noc(NS(=O)(=O)c2ccc(N)cc2)c1C` it is 4.16; for `CC(=O)/N=c1\sc(S(N)(=O)=O)nn1C` it is 7.3.
Still for that read-out and setting: the figure for `NS(=O)(=O)C(F)(F)I` is 6.79; for `N#CC(C#N)=NNc1ccccc1[N+](=O)[O-]` it is 5.8; for `CC(=O)Nc1nnn[nH]1` it is 4.53.
On the same count and under the same terms, the value for `O=C(O)c1ccc([N+](=O)[O-])cc1Cl` was 1.96.
Regarding `O=C(O)c1cccc(O)c1`, the pKa is 4.07.
With `Cc1cc(O)ccc1[N+](=O)[O-]`, the pKa is 7.65.
The same measure, in the same setting: the figure for `O=C([O-])/C=C\c1ccccc1O` is 10.7; for `CC1(C)[C@@H]2CC[C@](C(=O)O)(C2)[C@@H]1O` it is 4.83.

The same series, now with this note: basic group.
`CCOC(=O)[C@H](C)N` showed a pKa of 7.8.
For `COC(=O)c1ccncc1`, the pKa came out at 3.38.
Still for that read-out and setting: the value for `NNC(=O)c1ccc(N)cc1` was 3.56; that for `NCc1ccc([N+](=O)[O-])cc1` was 8.5; that for `CCCCCCCCCCCCCCCC[NH+](CCCCCCCCCCCCCCCC)CCCn1ccnc1` was 4.4.
Still for that read-out and setting: the figure for `CN(C)[C@H]1CCCC[C@@H]1O` is 10.4; for `CN(C)c1ncnc2c1ncn2[C@H]1O[C@@H](CO)[C@H](O)[C@@H]1O` it is 3.65; for `NCCc1c[nH]c2ccccc12` it is 10.2.
For the compound `C(=C/c1ccncc1)/c1ccccc1`, the pKa turned out to be 5.77.
The compound `[O-]c1ccnc2cccnc12` yielded a pKa of 10.
Same read-out and setting: the value for `O=[PH]([O-])C([NH2+]Cc1ccccn1)c1ccccc1O` (stereo not drawn) was 3.25; that for `CC(C#N)CN` (stereo not drawn) was 7.75.
On to `CN(C)CCC/N=C(\c1ccccc1)c1ccccc1-c1ccccc1`, for which the pKa turned out to be 9.2.
With `CN(CO)c1ccc(Cl)cc1`, the pKa turned out to be 3.02.
On the same count and under the same terms, the figure for `Nc1ccc2nc3ccccc3cc2c1` is 5.88; for `CC([Se-])CN` (stereo not drawn) it is 10.8.
Same read-out and setting: the value for `Oc1ccc2ccnnc2c1` was 3.31; that for `O=C([O-])[C@@H]1Cc2[nH]cnc2CN1` was 8.58.
The same measure, in the same setting: the figure for `OC(c1ccccc1)(c1ccccc1)c1ccccn1` is 3.9; for `CCCCCCCCN(CC(C)O)CC(C)O` (stereo not drawn) it is 8.3; for `Cc1cccc(C)c1N` it is 3.84.
Turning to `Cc1ccc2ncccc2c1`, the pKa came to 5.1.
Still for that read-out and setting: the value for `CC(N)Cc1ccc2c(c1)OCO2` (stereo not drawn) was 9.67; that for `Nc1cccc([NH3+])c1` was 2.46; that for `Cc1ccccc1/C(=N/CCCN(C)C)c1ccc2ccccc2c1` was 8.9.
In turn, `CC(C)N/C=N/c1ccc(-c2cncn2C)cc1` had a pKa of 8.83.
Same read-out and setting: the value for `C[C@H]1[C@@H](N)[C@@H](C)[C@@H](N)[C@@H](C)[C@H]1N` was 7.83.
The same measure, in the same setting: the figure for `Cc1cc([O-])nc2c1CCO2` is 8.44; for `[S-]c1nccc[nH+]1` it is 1.3.
Same read-out and setting: the value for `CNc1nnc(-c2ccccc2)s1` was 2.8.
`CNCCNC` displayed a pKa of 10.1.
On the same count and under the same terms, the value for `COc1ccc(OC)c2c1nc(CCl)n2C` was 4.1; that for `[O-]c1nc([O-])c2[nH]nnc2n1` was 9.3.
On the same count and under the same terms, the value for `Nc1nc(NCO)nc(NCO)n1` was 4.65; that for `N#Cc1ccc(CN)cc1` was 8.72; that for `CC(=O)OC1CN2CCC1CC2` (stereo not drawn) was 9.27.
Same read-out and setting: the value for `Nc1nc(N)c2[nH]cnc2n1` was 5.05; that for `COc1cc(S(C)=O)ccc1-c1nc2ccnnc2[nH]1` (stereo not drawn) was 3.63.
`CCNc1nc(NCC)nc(NCC)n1` showed a pKa of 5.84.
On the same count and under the same terms, the figure for `CNCC(=O)Nc1c(C)cccc1C` is 7.99.
As for `NCC(O)C[NH3+]`, the pKa turned out to be 8.19.
On the same count and under the same terms, the value for `CCCCCCCCCCCCCNCCCCCCCCCCCCC` was 11; that for `Nc1ccc2nnccc2c1` was 5.04.
Regarding `Nc1ccc2c(N)c3ccccc3nc2c1`, the pKa came out at 11.5.
`CCSCCN` came in with a pKa of 9.48.
Same read-out and setting: the value for `CCCC(=O)OC(C)CN(C)C` (stereo not drawn) was 8.27; that for `O=C(O)Cc1[nH]c2ccccc2[nH+]1` was -4.7; that for `CC(Cc1ccccc1)NCCC#N` (stereo not drawn) was 7.23.
Same read-out and setting: the figure for `N#CC(C#N)=NNc1ccccc1[N+](=O)[O-]` is -0.76; for `CCNc1nc(N)nc(NCC)n1` it is 5.52.
Same read-out and setting: the figure for `Cc1ccc(-c2cnc(-c3ccc(Br)cc3)o2)cc1` is 0.56; for `[S-]c1nccc2ccccc12` it is 10.8.
Consider `O=C(O)c1cccc(O)c1`, for which the pKa is -1.01.
On the same count and under the same terms, the value for `C[C@]1(O)CCCC[C@@H]1N` was 9.49; that for `CN1CC[C@]23c4c5ccc(O[C@@H]6O[C@H](C(=O)[O-])[C@@H](O)[C@H](O)[C@H]6O)c4O[C@H]2[C@@H](O)C=C[C@H]3[C@H]1C5` was 8.1; that for `Cc1ccc(NC(C)(C)C)cc1` was 7.3.
On the same count and under the same terms, the figure for `CC1(C)CC(Nc2ccccc2)=C/C(=N/c2ccccc2)C1` is 9.89; for `COc1ccc2nc3ccccc3cc2c1` it is 3.82; for `NCCC[NH3+]` it is 8.77.
Regarding `CC(C)c1nc2ccccc2[nH]1`, the pKa is 6.23.
